Laboratory results taken from publication PMC12116762, “Topobexin targets the Topoisomerase II ATPase domain for beta isoform-selective inhibition and anthracycline cardioprotection” (Nature Communications, 2025).
“And” between values parts separate entries of the source, which are not always exact repeats. Identical values can stand only once.

How the values were obtained:
HL-60 cell line = test system: HL-60 cell line; design: method as in previously determined; details: ref previously determined, read-out: IC50, antiproliferative; cited from earlier work
[1] = Plasma pharmacokinetics in rabbits (LC-MS/MS); assay type: in vivo, rabbit
Method: Six rabbits were used to determine the plasma pharmacokinetics of topobexin (9). The compound was used as a dihydrochloride and was dissolved right before administration in sterile saline (10 mg of free base/ml); pH was optimized using NaOH and the solution was filtered through an antimicrobial filter (0.22 µm porosity, Carl Roth GmbH + Co. KG, Germany). The drug was administered i.v. using marginal ear vein at 10 mg/kg (counted as a free base) in a 20 min infusion. The dose, route of administration, and timing of infusion were determined based on preliminary pharmacokinetic experiments. Blood for pharmacokinetic analysis was collected from the central artery in the contralateral ear before drug administration (blank) and in preselected time intervals after drug administration (5 min to 10 h). Blood was collected in BD Vacutainer tubes (BD Biosciences, Plymouth, UK) containing lithium heparin. All samples were immediately centrifuged (5 min, 3000 × g), plasma was harvested and frozen immediately in liquid nitrogen and the samples were stored at -80 °C until analysis.
The concentration of topobexin (9) was determined in plasma samples using an analytical method developed and validated for this purpose. Briefly, rabbit plasma (50 μl) was spiked with internal standard (compound 14), precipitated with ice-cold acetonitrile (200 μl), vortexed (30 s), and centrifuged (10 min, 9520 × g, 4 °C). The resulting supernatant was filtered through a 0.45 μm porosity filter (Milex – Hv, Merck Milipore, Darmstadt, Germany) and analyzed using UHPLC-MS. Agilent 1290 Infinity II LC with Triple Quad LC/MS (6400 series), a Jet Stream Electrospray and Mass Hunter software (Agilent, Santa Clara, CA, USA) were used for the analyzes and data treatment, respectively. Chromatographic separation was achieved on the Zorbax Eclipse Plus C18 column (50 × 2.1 mm, 1.8 μm, […], Dublin, Ireland). The mobile phase composed of part A (0.0025% formic acid) and part B (acetonitrile) was mixed in the following gradient: 0–1 min (10% B), 1–3 (10–60% B), 3–3.5 min (60% B), 3.51–5 min (80% B), 5.01–6 min (10% B). The flow rate of mobile phase was 0.3 mL/min and 2 μL of the sample were injected onto the column. The linearity of the method was verified within the concentration range of 1 to 1000 nM topobexin (9) in rabbit plasma.

[2] = molecular target: T1, TOP2A-DNA covalent complex (Homo sapiens, UniProt P11388); test: RADAR assay, etoposide-induced TOP2A-DNA covalent complex in HEK293F cells; assay type: cell-based; details: for TOP2A spot intensity: independent replicates
T1 construct: endogenous in cells; host or cells: HEK293F
T1 sequence (P11388 whole entry, one chain of several): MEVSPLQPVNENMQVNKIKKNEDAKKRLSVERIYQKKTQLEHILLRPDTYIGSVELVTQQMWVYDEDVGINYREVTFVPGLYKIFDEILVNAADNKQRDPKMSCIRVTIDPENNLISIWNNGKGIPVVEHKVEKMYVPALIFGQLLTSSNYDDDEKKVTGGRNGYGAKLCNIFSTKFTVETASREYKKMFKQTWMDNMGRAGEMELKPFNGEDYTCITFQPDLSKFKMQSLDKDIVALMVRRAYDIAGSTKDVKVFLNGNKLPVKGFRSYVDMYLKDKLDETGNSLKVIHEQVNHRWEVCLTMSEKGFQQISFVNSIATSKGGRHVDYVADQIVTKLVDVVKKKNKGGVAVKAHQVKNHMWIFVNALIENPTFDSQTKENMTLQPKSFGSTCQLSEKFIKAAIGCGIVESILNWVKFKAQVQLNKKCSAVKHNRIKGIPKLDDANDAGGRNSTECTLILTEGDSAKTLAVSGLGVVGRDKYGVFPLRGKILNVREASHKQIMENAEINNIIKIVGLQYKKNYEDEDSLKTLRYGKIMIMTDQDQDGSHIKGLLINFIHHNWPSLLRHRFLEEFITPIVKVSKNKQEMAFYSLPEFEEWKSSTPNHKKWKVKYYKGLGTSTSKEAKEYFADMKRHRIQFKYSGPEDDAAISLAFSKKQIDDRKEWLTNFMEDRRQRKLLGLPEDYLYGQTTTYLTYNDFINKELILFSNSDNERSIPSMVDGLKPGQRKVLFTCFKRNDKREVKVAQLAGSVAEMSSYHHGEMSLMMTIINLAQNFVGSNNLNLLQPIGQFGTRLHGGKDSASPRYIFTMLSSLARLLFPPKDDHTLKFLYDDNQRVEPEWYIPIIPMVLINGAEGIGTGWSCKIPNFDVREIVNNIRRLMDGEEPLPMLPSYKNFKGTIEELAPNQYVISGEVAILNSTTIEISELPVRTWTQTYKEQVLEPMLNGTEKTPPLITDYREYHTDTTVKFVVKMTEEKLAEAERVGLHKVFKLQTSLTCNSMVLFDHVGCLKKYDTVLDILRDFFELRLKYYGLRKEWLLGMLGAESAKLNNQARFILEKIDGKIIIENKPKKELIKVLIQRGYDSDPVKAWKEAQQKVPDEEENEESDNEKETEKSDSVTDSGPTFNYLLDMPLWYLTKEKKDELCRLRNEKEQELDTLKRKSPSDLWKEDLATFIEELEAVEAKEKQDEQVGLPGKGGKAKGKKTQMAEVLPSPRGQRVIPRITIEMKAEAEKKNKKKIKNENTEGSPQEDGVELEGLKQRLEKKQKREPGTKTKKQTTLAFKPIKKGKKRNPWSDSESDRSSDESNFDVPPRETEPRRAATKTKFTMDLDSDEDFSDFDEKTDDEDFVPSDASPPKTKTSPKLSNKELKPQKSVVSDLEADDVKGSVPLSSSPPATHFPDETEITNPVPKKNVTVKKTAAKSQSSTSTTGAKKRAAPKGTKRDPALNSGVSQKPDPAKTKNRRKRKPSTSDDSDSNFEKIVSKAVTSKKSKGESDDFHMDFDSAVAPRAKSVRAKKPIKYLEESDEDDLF
Method: HEK293F cells were plated at 3 × 10^5 cells per well and grown overnight. […] Upon removal of media, cells in each well were immediately lysed with 750 µL DNAzol (Molecular Research Center, Inc.) and the DNA was precipitated by addition of 375 µL of 100% ethanol. This step was then repeated to eliminate protein aggregates. Precipitate from each sample was pelleted via centrifugation at 4 °C and max speed for 5 min. The pellets were washed twice with buffer containing 20 mM Tris pH 7.5, 1 mM EDTA pH 8.0, 50 mM NaCl, 50% EtOH, and at the end of each wash, centrifugation at 4000 × g for 2 min was repeated to isolate the DNA pellets. The pellets were washed in 75% EtOH and then collected by centrifugation at 4 °C and max speed for 5 min. The supernatant was removed via pipetting, and the remaining pellets were air dried for 5 min before 50 µL 8 mM NaOH and 0.1% Tween-20 was added to each pellet. Once no visible precipitate remained, each mixture was supplemented with 5 µL of Benzonase buffer containing 500 mM Tris pH 8.0, 10 mM MgCl2, 1/1000 Roche complete protease inhibitor cocktail (Millipore Sigma) and 40 units Benzonase (Millipore Sigma) followed by 30 to 60 min incubation at 37 °C until the pellets were fully dissolved. The DNA content from each sample was quantified on a nanodrop, and 10 µg of DNA was diluted to a final volume of 200 µL in 8 mM NaOH and 0.1% Tween. The samples were applied over the Whatman Minifold I dot blot apparatus (Cytiva) and collected on a PVDF membrane (Thermo Fisher Scientific). The membrane was washed three times with 8 mM NaOH and 0.1% Tween-20 solution prior to removal and blocking with the same wash solution containing 1 mg/mL BSA. Western blotting was carried out on an iBind (Thermo Fisher Scientific) and TOP2 proteins were detected using isoform-specific antibody against full length TOP2A (1:250 dilution; HT2A21, Inspiralis) and TOP2B (1:500 dilution; 611493, BD Biosciences) and visualized with anti-rabbit (1:1000 dilution; 926-68071, LI-COR Bio) and anti-mouse (1:1000 dilution; 926-32210, LI-COR Bio) secondary antibodies in iBind running buffer. The blots were imaged on a LI-COR Odyssey Fc and analysed using ImageStudio. Each presented data point was obtained from distinct sample.

[3] = iv, rabbit plasma, 10 mg/kg, 20 min i.v. infusion

Compound: COc1cccc2c1C(=O)c1c(O)c3c(c(O)c1C2=O)C[C@@](O)(C(C)=O)C[C@@H]3O[C@H]1C[C@H](N)[C@H](O)[C@H](C)O1 [DAU, daunorubicin, reference compound]
- IC50 (HL-60 cell line): 0.015 µM

Compound: CCCc1cc(=O)oc2c(C(=O)N3CCCc4ccccc43)c(OCCN3CCN(C)CC3)ccc12 [topobexin (9)]
- Plasma concentration ([1]; 10 min, individual subjects): 9.134 µM and 17.429 µM and 15.678 µM and 15.114 µM and 12.648 µM
- Plasma concentration ([1]; 20 min, individual subjects): 11.689 µM and 11.373 µM and 12.322 µM and 16.573 µM and 12.398 µM
- Plasma concentration ([1]; 40 min, individual subjects): 4.374 µM and 4.139 µM and 3.247 µM and 3.779 µM and 3.693 µM
- Plasma concentration ([1]; 60 min, individual subjects): 1.755 µM and 3.643 µM and 3.122 µM and 2.610 µM and 3.293 µM and 2.847 µM
- Plasma concentration ([1]; 120 min, individual subjects): 1.524 µM and 1.569 µM and 1.234 µM and 1.184 µM and 1.188 µM
- Plasma concentration ([1]; 240 min, individual subjects): 0.456 µM and 0.440 µM and 0.629 µM and 0.503 µM and 0.425 µM
- Plasma concentration ([1]; 360 min, individual subjects): 0.161 µM and 0.144 µM and 0.140 µM and 0.225 µM and 0.134 µM
- Plasma concentration ([1]; 480 min, individual subjects): 0.110 µM and 0.051 µM and 0.053 µM and 0.103 µM and 0.049 µM
- Plasma concentration ([1]; 600 min, individual subjects): 0.019 μM (2×) and 0.026 μM (2×) and 0.018 μM
- Cmax [1, 3]: 13.5 ± 3.2 µM
- Tmax [1, 3]: 10 min
- concentrations present in rabbits during daunorubicin administration ([1]; plasma): ≤ 3 µM
- Plasma concentration ([1]; rabbit, 10 mg/kg 20 min i.v. infusion, 5 min, individual subjects, 10 mg/kg): 7.668 µM and 14.456 µM and 10.833 µM and 11.650 µM and 11.714 µM
- time with plasma concentration ≥ 1 μM ([1]; rabbit, 10 mg/kg, 20 min i.v. infusion): 2.5 h
- concentration at 10 min ([1]; rabbit, plasma, intravenous, 10 mg/kg, 10 min, individual subjects): 10.8 µM
- concentration at 20 min ([1]; rabbit, plasma, intravenous, 10 mg/kg, 20 min, individual subjects): 10.5 µM
- concentration at 40 min ([1]; rabbit, plasma, intravenous, 10 mg/kg, 40 min, individual subjects): 3.47 µM
- concentration at 120 min ([1]; rabbit, plasma, intravenous, 10 mg/kg, 120 min, individual subjects): 1.32 µM
- concentration at 240 min ([1]; rabbit, plasma, intravenous, 10 mg/kg, 240 min, individual subjects): 0.429 µM
- concentration at 360 min ([1]; rabbit, plasma, intravenous, 10 mg/kg, 360 min, individual subjects): 0.155 µM
- concentration at 600 min ([1]; rabbit, plasma, intravenous, 10 mg/kg, 600 min, individual subjects): 0.025 µM
- concentration at 5 min ([1]; rabbit, plasma, iv, 10 mg/kg, 10 mg/kg 20 min i.v. infusion, 5 min, individual subjects): 11.1 µM
- TOP2A spot intensity ([2]; Cmpd 9 0.1 μM + etoposide 5 μM): 56.77 and 79.14 and 121.2 and 109.4 and 138
- TOP2A spot intensity ([2]; Cmpd 9 1 μM + etoposide 5 μM): 31.84 and 81.31 and 94.03 and 77.86 and 117.3
- TOP2A spot intensity ([2]; Cmpd 9 10 μM + etoposide 5 μM): 13.9 and 41.59 and 30.46 and 21.29 and 12.52
- TOP2A spot intensity ([2]; Cmpd 9 10 μM, etoposide 0, background subtracted): 0.2099 and 13.4 and 11.83 and 3.115 and 7.885
- concentration significantly reducing TOP2A-DNA CC ([2]; etoposide-induced, HEK293F): 10 µM
